From ChEMBL document CHEMBL1136901, “Crown-capped imidacloprid: a novel design and insecticidal activity” (Bioorg Med Chem Lett, 2009)

Columns and labels:
Musca domestica [1] = experiment: Toxicity against Musca domestica Takatsuki assessed as neurological side effects at 1100 ng; assay type: functional, organism-based
Musca domestica [2] = experiment: Insecticidal activity against Musca domestica Takatsuki in presence of metabolic inhibitor propyl 2-propynyl phenylphosphate; assay type: functional
Musca domestica [3] = experiment: Insecticidal activity against Musca domestica Takatsuki assessed as mortality injected into thorax measured after 24 hrs; assay type: functional
[4] = Octanol-water partition coefficient, log P of the compound; assay type: physicochemical
Musca domestica [5] = experiment: Insecticidal activity against Musca domestica Takatsuki assessed as mortality at 15 ug applied topically; assay type: functional

Row | Structure (SMILES) | Activity (Musca domestica [1]) | Activity (Musca domestica [2]) [ng] | LD50 (Musca domestica [3]) [ng] | logP [4] | Activity (Musca domestica [5]) [%]
1 | c1ccc2c(c1)OCCOCCOCCOCCO2 | Not toxic |  |  |  | 
2 | O=[N+]([O-])/N=C1\N(Cc2ccc(Cl)nc2)CCN1Cc1ccc2c(c1)OCCOCCOCCOCCO2 |  | 4.8 | 25 | 0.15 | 44
3 | O=[N+]([O-])/N=C1\N(Cc2ccc(Cl)nc2)CCN1Cc1ccc2c(c1)OCCOCCOCCOCCOCCO2 |  | 4.3 | 17 | 0.28 | 38
4 | c1ccc2c(c1)OCCOCCOCCOCCOCCO2 | Not toxic |  |  |  | 
5 | O=[N+]([O-])/N=C1\NCCN1Cc1ccc(Cl)nc1 [IMIDACLOPRID] |  |  | 84 |  | 
